Source: ChEMBL document CHEMBL5096167, “Recent advances in development of hetero-bivalent kinase inhibitors” (Eur J Med Chem, 2021)
*1 amine or outer side, *2 acyl side, *3 side chain or, on linkers, in order; H or OH if unused. Where a SMILES comes first, the peptide text is derived from it. [ ]: non-standard residue; d: D form. The star is where a group is joined. ξ: configuration not given here. X1 = Brc1c(Br)c(Br)c2[nH]c(NCCCN*)nc2c1Br; X2 = O=C(Cc1c(Br)c(Br)c(Br)c2[nH]nnc12)*; Suc = O=C(CCC(=O)[*:2])[*:1]; ξE = NC(CCC(=O)O)C(=O)O; ξS = NC(CO)C(=O)O

Legend:
[1] = molecular target: T1, Serine/threonine-protein kinase haspin (Homo sapiens, UniProt Q8TF76)
T1 sequence (Q8TF76 whole entry): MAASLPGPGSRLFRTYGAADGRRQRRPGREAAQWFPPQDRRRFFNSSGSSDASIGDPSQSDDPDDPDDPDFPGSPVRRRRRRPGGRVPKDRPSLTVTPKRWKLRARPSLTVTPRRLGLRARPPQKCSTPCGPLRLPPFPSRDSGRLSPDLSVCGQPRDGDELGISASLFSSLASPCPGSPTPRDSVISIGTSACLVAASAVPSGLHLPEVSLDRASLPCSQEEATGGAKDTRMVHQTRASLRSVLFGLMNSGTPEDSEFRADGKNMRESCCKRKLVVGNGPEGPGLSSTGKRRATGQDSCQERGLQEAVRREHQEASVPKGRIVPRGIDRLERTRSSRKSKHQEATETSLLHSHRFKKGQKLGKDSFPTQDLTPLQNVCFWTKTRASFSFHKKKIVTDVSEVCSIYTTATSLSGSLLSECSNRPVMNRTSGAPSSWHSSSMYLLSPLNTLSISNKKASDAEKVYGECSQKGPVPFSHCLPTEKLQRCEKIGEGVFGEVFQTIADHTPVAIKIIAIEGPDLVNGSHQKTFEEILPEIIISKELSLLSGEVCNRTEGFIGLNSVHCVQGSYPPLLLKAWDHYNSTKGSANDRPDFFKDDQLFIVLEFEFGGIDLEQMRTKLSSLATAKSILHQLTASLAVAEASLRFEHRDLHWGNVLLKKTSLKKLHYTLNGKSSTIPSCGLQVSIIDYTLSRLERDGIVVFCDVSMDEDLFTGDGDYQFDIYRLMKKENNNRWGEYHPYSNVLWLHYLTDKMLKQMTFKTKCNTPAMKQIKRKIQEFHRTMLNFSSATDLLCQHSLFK

[2] = Binding affinity to full length human recombinant PKAc assessed as dissociation constant
[3] = organism: Homo sapiens
[4] = molecular target: Casein kinase 2 (Homo sapiens, UniProt P67870+P68400+P19784+Q8NEV1); assay: Inhibition of human CK2; format: protein assay
[5] = Inhibition of CK2alpha2beta2 (unknown origin); parameters: species or system Homo sapiens
[6] = molecular target: Proto-oncogene tyrosine-protein kinase Src (Homo sapiens, UniProt P12931); assay: Inhibition of c-Src (unknown origin)
[7] = molecular target: T2, cAMP-dependent protein kinase (PKA) (Homo sapiens, UniProt P22694+P17612+P22612)
[8] = molecular target: T1, Serine/threonine-protein kinase haspin; remark: listed apart in the source
[9] = molecular target: T1, Serine/threonine-protein kinase haspin; remark: listed apart in the source
[10] = molecular target: T3, Ephrin type-A receptor 3 (Homo sapiens, UniProt P29320); assay: Inhibition of EPHA3 (unknown origin) assessed as dissociation constant by ELISA-like binding assay
T3 sequence (P29320 whole entry): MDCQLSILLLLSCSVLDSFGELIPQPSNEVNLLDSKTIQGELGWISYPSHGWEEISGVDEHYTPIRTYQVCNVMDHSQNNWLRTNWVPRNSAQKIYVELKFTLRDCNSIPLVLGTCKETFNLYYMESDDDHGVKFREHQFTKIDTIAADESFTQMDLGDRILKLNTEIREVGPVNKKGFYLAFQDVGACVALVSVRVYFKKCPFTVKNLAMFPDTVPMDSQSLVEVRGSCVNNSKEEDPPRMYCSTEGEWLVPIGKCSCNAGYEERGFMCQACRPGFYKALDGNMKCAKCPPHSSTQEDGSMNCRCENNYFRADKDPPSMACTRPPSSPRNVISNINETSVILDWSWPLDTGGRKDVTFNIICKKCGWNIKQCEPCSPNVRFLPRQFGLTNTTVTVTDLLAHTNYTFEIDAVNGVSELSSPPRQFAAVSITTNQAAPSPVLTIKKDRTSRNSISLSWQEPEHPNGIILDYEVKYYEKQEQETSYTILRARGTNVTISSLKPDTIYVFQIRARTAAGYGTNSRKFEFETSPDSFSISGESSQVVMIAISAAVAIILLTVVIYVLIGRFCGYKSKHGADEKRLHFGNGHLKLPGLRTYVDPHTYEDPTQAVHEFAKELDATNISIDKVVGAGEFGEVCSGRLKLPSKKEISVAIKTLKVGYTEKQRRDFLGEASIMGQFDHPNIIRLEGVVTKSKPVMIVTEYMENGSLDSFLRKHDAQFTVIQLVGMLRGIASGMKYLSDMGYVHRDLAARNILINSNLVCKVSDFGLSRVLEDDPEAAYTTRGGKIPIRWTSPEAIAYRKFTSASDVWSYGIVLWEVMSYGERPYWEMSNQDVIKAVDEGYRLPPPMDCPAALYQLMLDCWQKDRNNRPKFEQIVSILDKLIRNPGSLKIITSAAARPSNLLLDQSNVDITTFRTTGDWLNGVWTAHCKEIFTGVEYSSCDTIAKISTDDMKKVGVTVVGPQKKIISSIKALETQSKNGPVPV

[11] = Binding affinity to human PKAc beta-S54L mutant assessed as dissociation constant
[12] = molecular target: cAMP-dependent protein kinase catalytic subunit beta (Homo sapiens, UniProt P22694); assay: Binding affinity to human wild-type PKAc beta assessed as dissociation constant
[13] = molecular target: cAMP-dependent protein kinase catalytic subunit alpha (Homo sapiens, UniProt P17612); assay: Displacement of mAb(D38C6)-BTN from human recombinant PKAc alpha incubated for 15 mins by microplate reader assay
[14] = Binding affinity to PKAc (unknown origin) assessed as dissociation constant; parameters: species or system Homo sapiens
[15] = molecular target: T2, cAMP-dependent protein kinase (PKA); assay: Binding affinity to PKA (unknown origin) assessed as dissociation constant; format: protein assay
[16] = Inhibition of AKR3 (unknown origin) assessed as dissociation constant; parameters: species or system Homo sapiens
[17] = molecular target: Rho-associated protein kinase 2 (Homo sapiens, UniProt O75116); assay: Inhibition of ROCK2 (unknown origin) assessed as dissociation constant
[18] = organism: Homo sapiens; assay: Selectivity ratio of Kd for inhibition of Untagged full length human PKAc alpha expressed in Escherichia coli BL21 DE3 cells assessed as dissociation constant to Kd for AKR3
[19] = organism: Homo sapiens; assay: Selectivity ratio of Kd for inhibition of Untagged full length human PKAc alpha expressed in Escherichia coli BL21 DE3 cells assessed as dissociation constant to Kd for inhibition of ROCK2 (unknown origin)

Chain of Proto-oncogene tyrosine-protein kinase Src (P12931 2-536 limits assumed): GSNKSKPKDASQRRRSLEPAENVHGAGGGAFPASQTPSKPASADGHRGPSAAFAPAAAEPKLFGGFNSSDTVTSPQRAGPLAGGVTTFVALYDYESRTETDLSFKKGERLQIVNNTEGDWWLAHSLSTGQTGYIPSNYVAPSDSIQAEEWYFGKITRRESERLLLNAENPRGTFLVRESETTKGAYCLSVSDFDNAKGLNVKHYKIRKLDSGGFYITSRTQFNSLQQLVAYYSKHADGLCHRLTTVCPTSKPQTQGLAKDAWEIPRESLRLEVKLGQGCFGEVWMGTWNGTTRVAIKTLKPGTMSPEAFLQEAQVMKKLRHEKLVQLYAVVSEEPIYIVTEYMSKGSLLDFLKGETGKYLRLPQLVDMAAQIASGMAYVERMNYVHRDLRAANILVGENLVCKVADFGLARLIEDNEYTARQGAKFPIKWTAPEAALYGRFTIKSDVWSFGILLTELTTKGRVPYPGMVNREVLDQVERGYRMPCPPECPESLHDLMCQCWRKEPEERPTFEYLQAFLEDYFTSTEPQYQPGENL
Chain of Rho-associated protein kinase 2 (O75116 whole entry): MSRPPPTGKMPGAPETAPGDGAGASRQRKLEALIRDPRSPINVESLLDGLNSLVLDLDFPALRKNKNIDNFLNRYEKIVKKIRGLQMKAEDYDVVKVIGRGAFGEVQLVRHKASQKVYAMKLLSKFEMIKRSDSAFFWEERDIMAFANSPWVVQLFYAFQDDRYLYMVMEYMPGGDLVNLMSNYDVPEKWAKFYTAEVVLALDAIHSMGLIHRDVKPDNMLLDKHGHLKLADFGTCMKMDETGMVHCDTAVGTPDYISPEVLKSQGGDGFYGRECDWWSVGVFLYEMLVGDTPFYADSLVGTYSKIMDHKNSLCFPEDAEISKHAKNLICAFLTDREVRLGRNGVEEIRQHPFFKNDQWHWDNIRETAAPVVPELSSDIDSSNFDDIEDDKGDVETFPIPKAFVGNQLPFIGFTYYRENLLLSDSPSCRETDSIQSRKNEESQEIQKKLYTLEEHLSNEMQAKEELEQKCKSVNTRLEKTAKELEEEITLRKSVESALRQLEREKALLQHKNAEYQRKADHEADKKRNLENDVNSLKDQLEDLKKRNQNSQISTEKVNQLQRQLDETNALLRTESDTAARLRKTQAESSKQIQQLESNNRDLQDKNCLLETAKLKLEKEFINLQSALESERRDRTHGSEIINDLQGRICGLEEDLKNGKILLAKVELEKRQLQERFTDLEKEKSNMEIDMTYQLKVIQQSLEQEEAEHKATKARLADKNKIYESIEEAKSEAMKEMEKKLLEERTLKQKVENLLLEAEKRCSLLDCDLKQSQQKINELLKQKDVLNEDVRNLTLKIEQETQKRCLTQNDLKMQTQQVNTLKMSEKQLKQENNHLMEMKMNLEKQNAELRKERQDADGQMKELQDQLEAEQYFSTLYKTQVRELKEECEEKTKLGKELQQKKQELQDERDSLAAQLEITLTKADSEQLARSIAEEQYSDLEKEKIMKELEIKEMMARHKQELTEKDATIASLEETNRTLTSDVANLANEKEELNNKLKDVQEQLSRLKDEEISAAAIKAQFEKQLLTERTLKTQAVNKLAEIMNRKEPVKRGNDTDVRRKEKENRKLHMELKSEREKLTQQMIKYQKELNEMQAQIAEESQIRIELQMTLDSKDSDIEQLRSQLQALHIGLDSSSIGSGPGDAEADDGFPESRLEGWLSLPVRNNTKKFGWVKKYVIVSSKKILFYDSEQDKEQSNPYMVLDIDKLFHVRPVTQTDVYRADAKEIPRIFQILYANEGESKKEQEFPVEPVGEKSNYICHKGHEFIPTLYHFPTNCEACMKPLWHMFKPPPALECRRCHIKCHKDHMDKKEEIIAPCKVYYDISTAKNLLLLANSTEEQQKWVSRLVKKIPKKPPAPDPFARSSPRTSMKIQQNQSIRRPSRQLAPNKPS

## C[C@H](N)C(=O)N[C@@H](CCCNC(=N)N)C(=O)N[C@@H](CCCCNC(=O)C[C@@H](NC(=O)CCCCCNC(=O)[C@H]1O[C@@H](n2cnc3c(N)ncnc32)[C@H](O)[C@@H]1O)C(N)=O)C(=O)N[C@@H](CCCCN)C(=O)N[C@@H](CCC(=O)O)C(=O)N[C@H](C(=O)N[C@@H](C)C(N)=O)[C@H](C)O
[1]
  Kd: 170 nM
[2]
  Kd: 1600 nM
[3]
  Selectivity Index: 9

## NC(=O)C(CCC(=O)O)NC(=O)C(CCC(=O)O)NC(=O)C(CCC(=O)O)NC(=O)C(CO)NC(=O)C(CCC(=O)O)NC(=O)[C@@H](N)CCCCNC(=O)Cc1c(Br)c(Br)c(Br)c2[nH]nnc12 (some centres undefined) (H-K(X2)[ξE][ξS][ξE][ξE][ξE]-NH2)
[4]
  IC50: 670 nM

## COC(=O)CC[C@H](NC(=O)CCC(=O)NCCCNc1nc2c(Br)c(Br)c(Br)c(Br)c2[nH]1)C(=O)N[C@@H](CCC(=O)OC)C(=O)N[C@@H](CCC(=O)OC)C(=O)N[C@@H](CCC(=O)OC)C(=O)OC ({X1-Suc}-E(OMe)E(OMe)E(OMe)E(OMe)-OMe)
[5]
  IC50: 10000 nM

## C[C@H](N)C(=O)N[C@@H](CCCNC(=N)N)C(=O)N[C@@H](CCCCNC(=O)C[C@@H](NC(=O)CCCCCNC(=O)[C@H]1O[C@@H](n2cnc3c(N)ncnc32)[C@H](O)[C@@H]1O)C(N)=O)C(=O)N[C@@H](CCCCN)C(=O)N[C@@H](CCC(N)=O)C(=O)N[C@H](C(=O)N[C@@H](C)C(=O)N[C@@H](CCCNC(=N)N)C(=O)N[C@@H](CCCNC(=N)N)C(=O)N[C@@H](CCCNC(=N)N)C(=O)N[C@@H](CCCNC(=N)N)C(=O)N[C@@H](CCCNC(=N)N)C(=O)N[C@@H](CCCNC(=N)N)C(N)=O)[C@H](C)O
[1]
  Kd: 0.42 nM
[2]
  Kd: 38 nM
[3]
  Selectivity Index: 90

## NCCCNc1nc2c(Br)c(Br)c(Br)c(Br)c2[nH]1
[5]
  IC50: 130 nM

## CC[C@H](C)[C@H](NC(=O)[C@H](CCC(=O)O)NC(=O)[C@H](CCC(=O)O)NC(=O)[C@H](Cc1ccc(P(=O)(O)O)cc1)NC(=O)[C@H](CCC(=O)O)NC(=O)COCC(=O)NCCOCCOCCOCCOCCOCCOCCOCCOCCn1cc(CCC(=O)N2CCN(c3cc(Nc4cc(C5CC5)[nH]n4)nc(C)n3)CC2)nn1)C(N)=O
[6]
  IC50: 160 nM

## C#CCCC(=O)N1CCN(c2cc(Nc3cc(C4CC4)[nH]n3)nc(C)n2)CC1
[6]
  IC50: 2900 nM

## O=C(O)CC[C@H](NC(=O)[C@H](CCC(=O)O)NC(=O)[C@H](CCC(=O)O)NC(=O)[C@H](CCC(=O)O)NC(=O)CCC(=O)NCCCNc1nc2c(Br)c(Br)c(Br)c(Br)c2[nH]1)C(=O)O ({X1-Suc}-EEEE-OH)
[5]
  IC50: 25 nM

## C[C@H](N)C(=O)N[C@@H](CCCNC(=N)N)C(=O)N[C@@H](CCCCNC(=O)C[C@@H](NC(=O)CCCCCNC(=O)[C@H]1O[C@@H](n2cnc3c(N)ncnc32)[C@H](O)[C@@H]1O)C(=O)O)C(=O)N[C@@H](CCCCN)C(=O)N[C@@H](CCC(N)=O)C(=O)N[C@H](C(=O)N[C@@H](C)C(N)=O)[C@@H](C)O
[1]
  Kd: 150 nM
[2]
  Kd: 7700 nM
[3]
  Selectivity Index: 50

## CO[C@@H]1[C@H](N(C)C(=O)CCC(=O)NCCCOCCOCCOCCCNC(=O)COCC(=O)N[C@H]2CSSC[C@@H](C(=O)NCC(N)=O)NC(=O)NC(=O)[C@H](Cc3ccccc3)NC(=O)[C@H](C(C)C)NC(=O)[C@H](CCCNC(=N)N)NC(=O)[C@H](Cc3ccccc3)NC(=O)[C@H]([C@@H](C)O)NC2=O)C[C@H]2O[C@]1(C)n1c3ccccc3c3c4c(c5c6ccccc6n2c5c31)C(=O)NC4
[7]
  IC50: 2.6 nM

## O=C(O)Cc1c(Br)c(Br)c(Br)c2[nH]nnc12
[4]
  IC50: 8000 nM

## C[C@H](N)C(=O)N[C@@H](CCCNC(=N)N)C(=O)N[C@@H](CCCCNC(=O)C[C@@H](NC(=O)CCCCCNC(=O)[C@H]1O[C@@H](n2cc(I)c3c(N)ncnc32)[C@H](O)[C@@H]1O)C(=O)O)C(=O)N[C@@H](CCCNC(=N)N)C(=O)N[C@@H](CCC(=O)O)C(=O)N[C@H](C(=O)N[C@@H](C)C(=O)N[C@H](CCCCN)C(N)=O)[C@H](C)O
[2]
  Kd: 94 nM
[3]
  Selectivity Index: 4900
[8]
  Kd: 0.019 nM
[9]
  Kd: 0.019 nM

## CC(C)[C@@H]1NC(=O)[C@H](CCCNC(=N)N)NC(=O)[C@H](Cc2ccccc2)NC(=O)[C@H]([C@@H](C)O)NC(=O)[C@@H](N)CSSC[C@@H](C(=O)NCC(N)=O)NC(=O)NC(=O)[C@H](Cc2ccccc2)NC1=O
[7]
  IC50: 57000 nM

## CC(C)(C)n1nc(-c2ccc(Cl)cc2)c2c(N)ncnc21
[10]
  Kd: 200000 nM

## N=C(N)NCCCC(NC(=O)CCCCCNC(=O)C(Cc1c[nH]c2ccccc12)NC(=O)CCCCCNC(=O)c1ccc(-c2ccnc(N)n2)[se]1)C(=O)NC(CCCNC(=N)N)C(=O)NC(CCCNC(=N)N)C(=O)NC(CCCNC(=N)N)C(=O)NC(CCCNC(=N)N)C(=O)NC(CCCNC(=N)N)C(=O)NC(CCCCN)C(N)=O (centres undefined)
[11]
  Kd: 0.019 nM
[12]
  Kd: 0.013 nM

## C[C@@H](NC(=O)CCCCCNC(=O)c1ccc(-c2ccnc(N)n2)[se]1)C(=O)N[C@H](CCCNC(=N)N)C(=O)N[C@H](CCCNC(=N)N)C(=O)N[C@H](CCCNC(=N)N)C(=O)N[C@H](CCCNC(=N)N)C(=O)N[C@H](CCCNC(=N)N)C(=O)N[C@H](CCCNC(=N)N)C(=O)N[C@H](CCCCN(C)c1ccc2c(-c3ccc(C(=O)[O-])cc3C(=O)O)c3ccc(=[N+](C)C)cc-3oc2c1)C(N)=O
[13]
  Kd: 0.042 nM

## CO[C@@H]1[C@H](N(C)C(=O)CCC(=O)O)C[C@H]2O[C@]1(C)n1c3ccccc3c3c4c(c5c6ccccc6n2c5c31)C(=O)NC4
[7]
  IC50: 159 nM

## N=C(N)NCCC[C@@H](NC(=O)CCCCCCCC(=O)N1CCN(C2N=CN=C3NC=CC32)CC1)C(=O)N[C@H](CCCNC(=N)N)C(=O)N[C@H](CCCNC(=N)N)C(=O)N[C@H](CCCNC(=N)N)C(=O)N[C@H](CCCNC(=N)N)C(=O)N[C@H](CCCNC(=N)N)C(=O)N[C@H](CCCCN)C(N)=O (some centres undefined)
[14]
  Kd: 0.003 nM
[15]
  Kd: 0.1 nM
[16]
  Kd: 310 nM
[17]
  Kd: 30 nM
[18]
  Selectivity ratio: 10
[19]
  Ratio: 10

## Nc1ncnc2c1ncn2[C@@H]1O[C@H](C(=O)O)[C@@H](O)[C@H]1O [5'-CARBOXY ADENOSINE]
[9]
  Kd: > 15000 nM
